Measurements taken from publication PMC7115581 (European Journal of Medicinal Chemistry, 2016).

Assays:
[1] = Cytotoxicity, inhibition of HEL cell growth; format: cell-based, human; settings: human, human embryonic lung (HEL) cells, CC50, cytotoxic concentration required to reduce HEL cell growth by 50%; 3 days
[2] = system: human embryonic lung (HEL) cells; assay: Cytotoxicity, inhibition of HEL cell growth; format: cell-based; settings: for cytotoxic activity (in words): at 100 μM
[3] = system: human embryonic lung (HEL) cells; settings: Table 2, concentration that causes a microscopically detectable alteration of morphology
[4] = system: varicella-zoster virus (VZV) TK+ OKA strain; assay: microbe, parasite or virus in culture; format: cell-based; settings: Human alphaherpesvirus 3, HEL, read-out: EC50 TK+ OKA
[5] = system: human cytomegalovirus (HCMV) Davis strain; assay: microbe, parasite or virus in culture; format: cell-based; settings: Human betaherpesvirus 5, HEL, read-out: Antiviral activity EC50 HMCV Davis
[6] = system: varicella zoster virus (VZV); settings: for antiviral activity (in words): at 100 μM; for anti-VZV activity (in words): HEL cells
[7] = system: HCMV, HSV-1, HSV-2; format: cell-based; settings: HCMV AD-169 and Davis, HSV-1 KOS and TK- KOS ACVr, HSV-2 G; HEL cell cultures
[8] = system: broad variety of RNA viruses, including HIV-1 and HIV-2, feline coronavirus, vesicular stomatitis virus, Coxsackie virus B4, respiratory syncytial virus …; format: cell-based
[9] = system: varicella zoster virus (VZV); assay: microbe, parasite or virus in culture; settings: Human alphaherpesvirus 3, HEL, read-out: EC50 against VZV
[10] = system: varicella zoster virus (VZV); assay: in vitro; settings: human

| Compound | Cytotoxicity MMC [3] [µM] | anti-VZV activity (in words) [6] | other results |
| --- | --- | --- | --- |
| Nc1nc2c(ncn2COCCO)c(=O)[nH]1 [Acyclovir, acyclovir, reference compound] | >250 | – | CC50 at 3 days [1]: 224 µM; CC50 ([2]; cytotoxic concentration required to reduce HEL cell growth by 50%, 3 days): 191 µM |
| O=c1[nH]c(=O)n([C@H]2C[C@H](O)[C@@H](CO)O2)cc1/C=C/Br [Brivudin, brivudin, reference compound] | >250 | – | EC50 [4]: 0.02 to 0.03 µM |
| Nc1ccn(C[C@@H](CO)OCP(=O)(O)O)c(=O)n1.O.O [Cidofovir, reference compound] | >250 | – | EC50 [5]: 0.51 µM |
| CCCn1cc(C(=O)c2ccc(Cl)cc2)c2ccccc21 [Compound 4a] | >100 | – | cytotoxic activity (in words) [2]: do not displayed antiviral or cytotoxic activities; antiviral activity (in words) [6]: do not displayed antiviral or cytotoxic activities |
| CCCn1cc(CN2CCCCC2)c2ccccc21 [Compound 4b] | >100 | – | cytotoxic activity (in words) [2]: do not displayed antiviral or cytotoxic activities; antiviral activity (in words) [6]: do not displayed antiviral or cytotoxic activities |
| CCCn1cc(CNCCc2ccc(-c3ccccc3)cc2)c2ccccc21 [Compound 4c] | 4 | – | – |
| c1ccc(-c2ccc(Cn3cc(CN4CCCCC4)c4ccccc43)cc2)cc1 [Compound 4d] | 20 | – | – |
| CCCn1cc(CN2CCCCC2)c2cc(CNc3ccc(Cl)cc3)ccc21 [Compound 8a] | 20 | – | – |
| CCCn1cc(CNCCc2ccc(-c3ccccc3)cc2)c2cc(CNc3ccc(Cl)cc3)ccc21 [Compound 8b] | 20 | – | – |
| CCCn1cc(CN2CCCCC2)c2cc(NC(=O)c3ccccc3)ccc21 [Compound 8c] | 100 | – | – |
| COC(=O)c1ccc(CNCCc2cn(Cc3ccc(-c4ccccc4)cc3)c3ccccc23)cc1 [Compound 15] | 20 | – | – |
| Cn1cc(CCNCCc2ccc(-c3ccccc3)cc2)c2ccccc21 [Compound 16a] | >4 | – | – |
| CC(=O)N(CCc1ccc(-c2ccccc2)cc1)CCc1cn(C)c2ccccc12 [Compound 17a] | 20 | – | activity against other Herpesviridae (in words) [7]: totally inactive; inhibitory activity against RNA viruses (in words) [8]: totally inactive; EC50 [9]: 1.7 to 3.6 µM; selectivity ratio [10]: 10 to 20 |
| CC(=O)N(CCc1cn(C)c2ccccc12)c1ccc2ccccc2c1 [Compound 17d] | – | complete loss of the antiviral activity | – |
| CC(=O)N(CCc1cn(C)c2ccccc12)c1cccc2ccccc12 [Compound 17e] | – | complete loss of the antiviral activity | – |
| CC(=O)N(CCc1cn(C)c2ccccc12)Cc1ccc2ccccc2c1 [Compound 17f] | – | complete loss of the antiviral activity | – |
| CC(=O)N(CCc1cn(C)c2ccccc12)Cc1cccc2ccccc12 [Compound 17g] | – | complete loss of the antiviral activity | – |
| CC(=O)N(CCc1cn(C)c2ccccc12)Cc1ccc(-c2ccccc2)cc1 [Compound 17h] | – | complete loss of the antiviral activity | – |
| CC(=O)N(CCc1cn(C)c2ccccc12)Cc1ccc(Oc2ccccc2)cc1 [Compound 17i] | – | complete loss of the antiviral activity | – |
| Cn1cc(CCN(CCc2ccc(-c3ccccc3)cc2)C(=O)C2CCCCC2)c2ccccc21 [Compound 18a] | – | annihilation of antiviral activity | – |
| Cn1cc(CCN(CCc2ccc(-c3ccccc3)cc2)C(=O)CCN2CCOCC2)c2ccccc21 [Compound 18c] | – | annihilation of antiviral activity | – |
| Cn1cc(CCN(CCc2ccc(-c3ccccc3)cc2)C(=O)OC(C)(C)C)c2ccccc21 [Compound 18d] | – | annihilation of antiviral activity | – |
